These are literature values, as cited in patent US11503831B2, “Arthropoda repellent composition” (SanderStrothmann GmbH, priority 2019, dated 2022).

The conditions of this series: in vivo.

On to `CCN(CC)C(=O)c1cccc(C)c1` [N,N-diethyl toluamide, N,N′-diethyl toluamide], for which the “Share of topically applied dose absorbed by the skin” value was “approximately 50%” and the “Time to peak plasma levels” value was 1 h.
